Laboratory results: publication PMC9667543, “Discovery of Nanomolar-Affinity Pharmacological Chaperones Stabilizing the Oncogenic p53 Mutant Y220C” (ACS Pharmacology & Translational Science, 2022)
Where two headings read alike, the source gives them in different places.

What was measured:
[1] = target: T1, p53-Y220C (Homo sapiens, UniProt P04637, M133L/N239Y/N268D/V203A/Y220C); conditions: cited from earlier work; for stabilization of p53-Y220C (DSF): in vitro
T1 construct: Stabilized p53-Y220C DBD (residues 94−312) was expressed and purified as previously described; 6xHis (N, cleaved yes); lipoyl domain (N, cleaved yes); TEV protease cleavage site (N, cleaved yes); made in house; host or cells: E. coli Rosetta2 plac I

[2] = target: T1, p53-Y220C; conditions: cited from earlier work
[3] = system: p53-Y220C cancer cell lines HUH-7, BXPC-3, NUGC-3; conditions: cited from earlier work
[4] = system: p53; set-up: method as in PMID 31633398; conditions: in vitro; cited from earlier work
[5] = target: T1, p53-Y220C; experiment: Thermal stabilization (ΔTm) by differential scanning fluorimetry (DSF); assay type: binding; conditions: 10× SYPRO Orange; for ΔTm at 200 µM: 8 μM protein; for ΔTm (°C) [L] = 200 μM: Table 1, 8 μM protein
Protocol: Differential Scanning Fluorimetry (DSF)
Protein thermal stabilization was determined using SYPRO orange (Life Technologies) as a dye that increases in fluorescence quantitatively upon binding to hydrophobic protein surfaces exposed upon thermal denaturation. Real-time melt analysis was recorded on a Bio-rad CFX Connect Real-time qPCR system. DSF measurements were performed using 8 μM protein and 10x SYPRO orange in assay buffer (25 mM KPi, 150 mM NaCl, 1 mM TCEP, pH 7.2) at a final DMSO concentration of 5% (v/v). ΔT m values were calculated as ΔT m = T m (protein + compound) − T m (protein). ΔT m values are reported as an average of three independent measurements. […]

[6] = target: T1, p53-Y220C; experiment: Binding affinity by isothermal titration calorimetry (ITC); conditions: for LE (kcal/mol/NHA): ligand efficiency; for fold reduction in binding affinity compared with 4: versus unsubstituted pyrrole reference 4
Protocol: Isothermal Titration Calorimetry (ITC)
ITC experiments were conducted using a MicroCal iTC200 calorimeter. For forward titrations, the cell unit contained 25-50 μM protein in freshly dialyzed assay buffer (25 mM KPi, 150 mM NaCl, 1 mM TCEP, pH 7.2) with a final DMSO content of 5% (v/v), and the syringe contained 0.5-5 mM compound […]
the same buffer. Injection steps used were 2 µL (initial injection: 0.5 µL) at a rate of 2 µL/s with 120 s or 240 s spacing, and all experiments were performed at 25-30 °C. Data were analyzed using MicroCal PEAQ-ITC analysis software. […]

[7] = target: T1, p53-Y220C; experiment: as above; conditions: Table 2; ITC reverse titrations, 4–15 μM ligand, 100–147 μM protein
[8] = system: NUGC-3 (p53-Y220C); set-up: method as in PMID 29702446; conditions: at 10 μM; cited from earlier work
[9] = system: p53 target genes PUMA, 9p21, BTG2, FAS, TNF, and TNFRSF10B; set-up: method as in PMID 29702446; conditions: qPCR; cited from earlier work

Structure (SMILES)	ΔTm at 200 µM ([5]; Table 1, [L] = 200 μM) [°C]	Kd ([6]; Table 1, ITC, [prot] = 50 μM) [µM]	LE (kcal/mol/NHA) ([6]; Table 1)	melting point	other results
CCn1c2ccc(CNC)cc2c2ccc(-c3cc(C)cs3)cc21 [compound 1]	–	–	–	–	thermal shift (ΔTm) to the protein melting temperature ([1]; 250 μM [ligand]): over 3 °C; Kd ([2]; binding to the Y220C pocket): 2 µM; selective cell viability reduction ([3]; HUH-7 and NUGC-3 (p53-Y220C) versus HUH7-F1 (p53-Y220C KO) and NUGC-4 (p53-WT), narrow concentration range): induces selective cell viability reduction; p53 aggregation [4]: reduces p53 aggregation in vitro
CCN(CC)c1nc2c(C(=O)O)c(O)c(I)c(-n3cccc3)c2s1 [compound 2, reference compound]	–	–	–	–	ΔTm at 200 µM ([5]; Table 2, [L] = 200 μM): 2.3 °C; LE (kcal/mol/NHA) ([6]; Table 2): 0.34 kcal/mol/NHA; stabilization of p53-Y220C (DSF) [1]: stabilize p53-Y220C in vitro in a concentration-dependent manner; Kd [7]: 1200 nM
CCNC(=O)c1c(O)c(I)c(-n2cccc2)c2sc(N(CC)CC)nc12 [compound 3]	–	–	–	–	stabilization of p53-Y220C (DSF) [1]: stabilize p53-Y220C in vitro in a concentration-dependent manner; Kd ([2]; literature value, ITC): 4 µM; NUGC-3 viability [8]: < 10%; selective cell viability reduction ([3]; HUH-7, BXPC-3, NUGC-3 versus NUGC-4, SW1088, WI38, HUH-7 p53-Y220C KO): induces selective cell viability reduction; transcription of p53 target genes [9]: enhanced and selective transcription of p53 target genes
O=C(O)c1cc(I)c(-n2cccc2)c(I)c1O [compound 4]	1.8	22	0.37	199 to 200 °C (dec.)	–
CN(C)Cc1ccc2c(c1)c1ccccc1n2CC(F)(F)F [compound 6]	–	–	–	–	Kd ([2]; supplementary CSV, previously reported compounds, no reference printed in the file): 37 µM
O=C(O)c1cc(I)c(-n2cccn2)c(I)c1O [compound 17]	0.7	–	–	241 °C (dec.)	–
O=C(O)c1cc(I)c(-n2ccnc2)c(I)c1O [compound 18]	1	–	–	238 °C (dec.)	–
O=C(O)c1cc(I)c(-n2ccc3ccccc32)c(I)c1O [compound 19]	-0.3	–	–	183 to 184 °C (dec.)	ΔTm (°C) [L] = 200 μM [5]: induced virtually no stabilization
O=C(O)c1cc(I)c(-n2ccc(Cl)c2)c(I)c1O [compound 20]	1.5	38	0.33	–	–
O=C(O)c1cc(I)c(-n2ccc(F)c2)c(I)c1O [compound 21]	1.9	15	0.37	270 to 271 °C (dec.)	–
O=C(O)c1cc(I)c(-n2cc(F)c(F)c2)c(I)c1O [compound 22]	1.9	25	0.33	217 to 218 °C (dec.)	–
O=C(O)c1cc(I)c(-n2ccc(C(F)(F)F)c2)c(I)c1O [compound 23]	0.5	100	0.26	–	fold reduction in binding affinity compared with 4 [6]: approximately 5 fold
O=C(O)c1cc(I)c(OCC(F)(F)F)c(I)c1O [compound 24]	0.3	–	–	–	–
Cc1cccn1-c1c(I)cc(C(=O)O)c(O)c1I [compound 43]	1.5	200	0.28	–	–
Cc1ccn(-c2c(I)cc(C(=O)O)c(O)c2I)c1 [compound 44]	1.5	160	0.29	–	–
Cc1ccc(C)n1-c1c(I)cc(C(=O)O)c(O)c1I [compound 45]	1.1	77	0.30	215 °C (dec.)	fold reduction in binding affinity compared with 4 [6]: 3 fold
CC(=O)c1ccn(-c2c(I)cc(C(=O)O)c(O)c2I)c1 [compound 46]	–	–	–	235 to 236 °C (dec.)	–
CCc1ccn(-c2c(I)cc(C(=O)O)c(O)c2I)c1 [compound 47]	0.5	–	–	–	ΔTm (°C) [L] = 200 μM [5]: induced virtually no stabilization
COc1c(I)cc(C(=O)O)c(O)c1I [compound 62]	1.5	120	0.38	197 to 198 °C (dec.)	–
CCOc1c(I)cc(C(=O)O)c(O)c1I [compound 63]	1.5	86	0.37	194 to 195 °C (dec.)	–
CCCOc1c(I)cc(C(=O)O)c(O)c1I [compound 64]	1.1	100	0.34	–	–
O=C(O)c1cc(I)c(OCCC(F)(F)F)c(I)c1O [compound 65]	0.5	–	–	182 to 183 °C (dec.)	–
CCNc1ccc(C(=O)O)c(O)c1I [compound 67]	1.5	–	–	147 °C (dec.)	–
O=C(O)c1cc(I)c(N2CCCC2)c(I)c1O [compound 70]	0.3	–	–	146 °C (dec.)	ΔTm (°C) [L] = 200 μM [5]: did not exhibit measurable binding nor thermal stabilization; Kd (μM) ([6]; Table 1, ITC, [prot] = 50 μM): did not exhibit measurable binding nor thermal stabilization
Cc1c(I)cc(C(=O)O)c(O)c1I [compound 74]	0.3	–	–	–	–
CCc1c(I)cc(C(=O)O)c(O)c1I [compound 75]	1.5	26	0.45	188 to 189 °C (dec.)	–
CCCc1c(I)cc(C(=O)O)c(O)c1I [compound 76]	0.9	40	0.40	–	–
CCN(CC)c1nc2c(C(=O)O)c(O)c(I)c(-n3ccc(F)c3)c2s1 [compound 87]	–	–	–	–	ΔTm at 200 µM ([5]; Table 2, [L] = 200 μM): 2.7 °C; LE (kcal/mol/NHA) ([6]; Table 2): 0.35 kcal/mol/NHA; fold improvement in affinity compared with parent 2 ([6]; versus parent MB710 (2)): approximately 4 fold; Kd [7]: 320 nM
CCN(CC)c1nc2c(C(=O)O)c(O)c(I)c(-n3cc(F)c(F)c3)c2s1 [compound 88]	–	–	–	216 to 217 °C	ΔTm at 200 µM ([5]; Table 2, [L] = 200 μM): 1.8 °C; LE (kcal/mol/NHA) ([6]; Table 2): 0.34 kcal/mol/NHA; Kd [7]: 390 nM
CCN(CC)c1nc2c(C(=O)O)c(O)c(I)c(-n3ccc(Cl)c3)c2s1 [compound 89]	–	–	–	–	ΔTm at 200 µM ([5]; Table 2, [L] = 200 μM): 2 °C; LE (kcal/mol/NHA) ([6]; Table 2): 0.31 kcal/mol/NHA; fold weaker binding affinity compared with MB710 (2) ([6]; versus parent 2): ca. 2 fold; Kd [7]: 1900 nM
